Measured values published in US8541410B2, “Sulfur substituted sulfonylaminocarboxylic acid N-arylamides, their preparation, their use and pharmaceutical preparations comprising them” (Sanofi-aventis Deutschland GmbH, priority 1998, dated 2013).

These compounds were tested against T1, soluble guanylate cyclase (sGC) (Bos taurus, UniProt P16068) (assay: Activation of the soluble guanylate cyclase (cGMP enzyme immunoassay)). Conditions: concentration c 10 μM; n-fold stimulation of basal enzyme activity.
T1 construct: The sGC which was employed had been isolated from bovine lung; from tissue; host or cells: bovine lung
T1 sequence (P16068 1-619): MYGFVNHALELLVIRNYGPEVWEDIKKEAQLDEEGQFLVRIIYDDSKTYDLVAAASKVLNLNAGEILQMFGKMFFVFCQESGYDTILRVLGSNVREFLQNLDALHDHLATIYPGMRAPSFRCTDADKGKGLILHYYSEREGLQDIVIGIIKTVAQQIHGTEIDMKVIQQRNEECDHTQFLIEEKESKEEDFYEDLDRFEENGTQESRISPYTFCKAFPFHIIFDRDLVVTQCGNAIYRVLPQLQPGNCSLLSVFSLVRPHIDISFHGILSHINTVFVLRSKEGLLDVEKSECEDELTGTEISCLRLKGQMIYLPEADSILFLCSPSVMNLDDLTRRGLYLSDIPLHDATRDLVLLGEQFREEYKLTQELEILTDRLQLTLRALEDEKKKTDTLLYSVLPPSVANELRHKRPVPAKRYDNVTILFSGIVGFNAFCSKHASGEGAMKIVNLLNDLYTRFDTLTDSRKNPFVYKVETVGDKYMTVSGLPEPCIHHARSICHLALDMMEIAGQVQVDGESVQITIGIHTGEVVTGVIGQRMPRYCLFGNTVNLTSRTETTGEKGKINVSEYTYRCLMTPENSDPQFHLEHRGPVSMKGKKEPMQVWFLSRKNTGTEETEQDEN
T1 sequence (P19687 1-691 partner): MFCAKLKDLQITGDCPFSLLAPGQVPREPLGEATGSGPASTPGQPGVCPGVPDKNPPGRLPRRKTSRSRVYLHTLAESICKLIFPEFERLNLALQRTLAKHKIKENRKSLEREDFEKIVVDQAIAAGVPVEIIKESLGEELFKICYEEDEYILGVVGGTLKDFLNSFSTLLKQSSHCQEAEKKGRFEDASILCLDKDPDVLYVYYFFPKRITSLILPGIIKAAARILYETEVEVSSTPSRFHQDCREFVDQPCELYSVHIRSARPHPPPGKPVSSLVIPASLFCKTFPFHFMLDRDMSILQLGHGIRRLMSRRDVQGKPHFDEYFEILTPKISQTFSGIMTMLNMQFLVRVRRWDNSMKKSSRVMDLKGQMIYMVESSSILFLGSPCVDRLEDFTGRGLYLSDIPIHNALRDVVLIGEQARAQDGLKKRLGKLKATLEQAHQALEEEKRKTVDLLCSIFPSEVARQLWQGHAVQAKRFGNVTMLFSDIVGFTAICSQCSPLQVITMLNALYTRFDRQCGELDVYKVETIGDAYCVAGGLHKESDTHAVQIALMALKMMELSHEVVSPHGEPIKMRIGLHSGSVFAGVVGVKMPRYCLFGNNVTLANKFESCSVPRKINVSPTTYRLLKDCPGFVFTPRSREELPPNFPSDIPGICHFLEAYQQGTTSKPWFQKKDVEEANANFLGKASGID
Type: biochemical, bovine
Experimental: The activation of the soluble guanylate cyclase (sGC) which catalyzes the conversion of guanosine triphosphate (GTP) into cyclic guanosine monophosphate (cGMP) and pyrophosphate, by the compounds according to the invention was quantified with the aid of an enzyme immunoassay (EIA) from Amersham. For this purpose the substances to be tested were initially incubated with sGC in microtiter plates, and the amount of the cGMP formed was then determined.
The sGC which was employed had been isolated from bovine lung (see Methods in Enzymology, Volume 195, p. 377). The test solutions (100 μl per well) contained 50 mM triethanolamine (TEA) buffer (pH 7.5), 3 mM MgCl2, 3 mM reduced glutathione (GSH), 0.1 mM GTP, 1 mM 3-isobutyl-1-methylxanthine (IBMX), suitably diluted enzyme solution and the substance to be tested or, in the control experiments, the solvent. The substances to be tested were dissolved in dimethyl sulfoxide (DMSO) and the solution was diluted with DMSO/water, so that the final concentration (c) of the substance to be tested in the test solution had the value indicated in the table. The DMSO concentration in the test solution was 5% (v/v). The reaction was initiated by addition of the sGC. The reaction mixture was incubated at 37° C. for 15 to 20 minutes and then stopped by ice-cooling and addition of the stop reagent (50 mM EDTA, pH 8.0). An aliquot of 50 μl was taken and used for determining the cGMP content using the acetylation protocol of the Amersham cGMP-EIA kit. The absorption of the samples was measured at 450 nm (reference wavelength 620 nm) in a microtiter plate reader. The cGMP concentration was determined using a standard curve which was obtained under the same test conditions. The activation of sGC by a test substance is given as the n-fold stimulation of the basal enzyme activity which was found in the control experiments (using solvent instead of test substance) (calculated using the formula n-fold stimulation=[cGMP]test substance/[cGMP]control).

n-fold stimulation	SMILES
23.1	Cc1noc(C)c1S(=O)(=O)Nc1ccc(Cl)cc1C(=O)Nc1ccc(S(=O)(=O)N2CCc3ccccc3C2)cc1 [Example 208, 5-Chloro-2-(3,5-dimethyl-isoxazole-4-sulfonylamino)-N-(4-(1,2,3,4-tetrahydro-isoquinoline-2-sulfonyl)-phenyl)-benzamide]
21.9	COc1cc(NS(=O)(=O)c2c(C)noc2C)c(C(=O)Nc2ccc(S(=O)(=O)N(C)Cc3cccnc3)cc2)cc1OC [Example 196, 4,5-Dimethoxy-2-(3,5-dimethyl-isoxazole-4-sulfonylamino)-N-(4-(N-methyl-N-(pyridin-3-yl-methyl)-aminosulfonyl)-phenyl)-benzamide]
29.5	Cc1noc(C)c1S(=O)(=O)Nc1ccc(Cl)cc1C(=O)Nc1ccc(S(=O)(=O)N2C[C@@H](C)O[C@@H](C)C2)cc1 [Example 222, 5-Chloro-2-(3,5-dimethyl-isoxazole-4-sulfonylamino)-N-(4-(cis-2,6-dimethyl-morpholine-4-sulfonyl)-phenyl)-benzamide]
31.1	Cc1cc(NC(=O)c2cc(Cl)ccc2NS(=O)(=O)c2ccc(Cl)cc2)ccc1S(=O)(=O)N1C[C@@H](C)O[C@@H](C)C1 [Example 193, 5-Chloro-2-(4-chloro-phenylsulfonylamino)-N-(4-(cis-2,6-dimethyl-morpholine-4-sulfonyl)-3-methyl-phenyl)-benzamide]

Same assay, conditions: concentration c 25 μM; n-fold stimulation of basal enzyme activity

n-fold stimulation	SMILES
3.3	C[C@@H]1CN(S(=O)(=O)c2ccc(NC(=O)c3ccc(Cl)cc3NS(=O)(=O)c3ccc(Cl)cc3)cc2)C[C@H](C)O1 [Example 226, 4-Chloro-2-(4-chloro-phenylsulfonylamino)-N-(4-(cis-2,6-dimethyl-morpholine-4-sulfonyl)-phenyl)-benzamide]

Same assay, conditions: concentration c 50 μM; n-fold stimulation of basal enzyme activity

SMILES	n-fold stimulation
COc1cc(NS(=O)(=O)c2ccc(Cl)cc2)c(C(=O)Nc2ccc(S(=O)(=O)N3CCS(=O)(=O)CC3)cc2)cc1OC [Example 175, 2-(4-Chloro-phenylsulfonylamino)-4,5-dimethoxy-N-(4-(1,1-dioxo-thiomorpholine-4-sulfonyl)-phenyl)-benzamide]	21.1
Cc1ccc(NS(=O)(=O)c2ccc(Cl)cc2)c(C(=O)Nc2ccc(S(=O)(=O)N3CCSCC3)cc2)c1 [Example 86, 2-(4-Chloro-phenylsulionylamino)-5-methyl-N-(4-(thiomorpholine-4-sulfonyl)-phenyl)-benzamide]	32.9
O=C(Nc1ccc(S(=O)(=O)N2CCSCC2)cc1)c1cc(Cl)ccc1NS(=O)(=O)c1ccc(Cl)cc1 [Example 63, 5-Chloro-2-(4-chloro-phenylsulfonylamino)-N-(4-(thiomorpholine-4-sulfonyl)-phenyl)-benzamide]	33.9
Cc1nn(C)c(Cl)c1S(=O)(=O)Nc1ccc(Cl)cc1C(=O)Nc1ccc(S(=O)(=O)N2CCSCC2)cc1 [Example 124, 5-Chloro-2-(5-chloro-1,3-dimethyl-1H-pyrazole-4-sulfonyl-amino)-N-(4-(thiomorpholine-4-sulfonyl)-phenyl)-benzamide]	31.2
O=C(Nc1ccc(S(=O)(=O)N2CCSCC2)cc1)c1sccc1NS(=O)(=O)c1ccc(Cl)cc1 [Example 84, 3-(4-Chloro-phenylsulfonylamino)-N-(4-(thiomorpholine-4-sulfonyl)-phenyl)-thiophene-2-carboxamide]	23.7
CSc1ccc(NC(=O)c2cc(Cl)ccc2NS(=O)(=O)c2ccc(Cl)cc2)cc1 [Example 23, 5-Chloro-2-(4-chloro-phenylsulfonylamino)-N-(4-methylmercapto-phenyl)-benzamide]	14.7
CN1CCN(S(=O)(=O)c2ccc(NC(=O)c3cc(Cl)ccc3NS(=O)(=O)c3ccc(Cl)c(Cl)c3)cc2)CC1 [Example 71, 5-Chloro-2-(3,4-dichloro-phenylsulfonylamino)-N-(4-(b4-methyl-piperazine-1-sulfonyl)-phenyl)-benzamide]	13.4

Further lines, results first:

n-fold stimulation	SMILES
15.3	Cc1cc(C)c(S(=O)(=O)Nc2ccc(Cl)cc2C(=O)Nc2ccc(S(=O)(=O)N3CCOCC3)cc2)c(C)c1 [Example 150, 5-Chloro-N-(4-(morpholine-4-sulfonyl)-phenyl)-2-(2,4,6-trimethyl-phenylsulfonylamino)-benzamide]
7.2	CCS(=O)(=O)Nc1ccc(Cl)cc1C(=O)Nc1ccc(S(=O)(=O)N2CCOCC2)cc1 [Example 134, 5-Chloro-2-(ethylsulfonylamino)-N-(4-(morpholine-4-sulfonyl)-phenyl)-benzamide]
4.6	O=C(Nc1ccc(S(=O)(=O)N2CCOCC2)cc1)c1cc(Cl)ccc1NS(=O)(=O)c1ccc(C(F)(F)F)cc1 [Example 137, 5-Chtoro-N-(4-(morpholine-4-sulfonyl)-phenyl)-2-(4-trifluoromethyl-phenylsulfonylamino)-benzamide]
9.9	O=C(Nc1ccc(S(=O)(=O)N2CCOCC2)cc1)c1cc(Cl)ccc1NS(=O)(=O)c1cccnc1 [Example 132, 5-Chloro-N-(4-(morpholine-4-sulfonyl)-phenyl)-2-(pyridine-3-sulfonylamino)-benzamide]
8	O=C(Nc1ccc(S(=O)(=O)N2CCOCC2)cc1)c1cc(Cl)ccc1NS(=O)(=O)c1cc(Br)c(Br)s1 [Example 145, 5-Chloro-2-(4,5-dibromo-thiophene-2-sulfonylamino)-N-(4-(morpholine-4-sulfonyl)-phenyl)-benzamide]
27.8	Cc1noc(C)c1S(=O)(=O)Nc1ccc(Cl)cc1C(=O)Nc1ccc(S(=O)(=O)N2CCOCC2)cc1 [Example 224, 5-Chloro-2-(3,5-dimethyl-isoxazole-4-sulfonylamino)-N-(4-(morpholine-4-sulfonyl)-phenyl)-benzamide]
25.1	O=C(Nc1ccc(S(=O)(=O)N2CCSCC2)cc1)c1cc(Cl)ccc1NS(=O)(=O)c1ccc(Cl)c(Cl)c1 [Example 70, 5-Chloro-2-(3,4-dichloro-phenylsulfonylamino)-N-(4-(thiomorpholine-4-sulfonyl)-phenyl)-benzamide]
7.8	O=C(Nc1ccc(S(=O)(=O)N2CCOCC2)cc1)c1cc(Cl)ccc1NS(=O)(=O)CC(F)(F)F [Example 155, 5-Chloro-N-(4-(morpholine-4-sulfonyl)-phenyl)-2-(2,2,2-trifluoro-ethylsulfonylamino)-benzamide]
27	COc1cc(NS(=O)(=O)c2ccc(Cl)cc2)c(C(=O)Nc2ccc(S(=O)(=O)N3CCOCC3)cc2)cc1OC [Example 72, 2-(4-Chloro-phenylsulfonylamino)-4,5-dimethoxy-N-(4-(morpholine-4-sulfonyl)-phenyl)-benzamide]
15.5	COc1ccc(S(=O)(=O)Nc2ccc(Cl)cc2C(=O)Nc2ccc(S(=O)(=O)N3CCOCC3)cc2)cc1Cl [Example 148, 5-Chloro-2-(3-chloro-4-methoxy-phenylsulfonylamino)-N-(4-(morpholine-4-sulfonyl)-phenyl)-benzamide]
